Drawing on patent US12522594B2, “2-heteroaryl-3-oxo-2,3-dihydropyridazine-4-carboxamides for the treatment of cancer” (Deutsches Krebsforschungszentrum, priority 2017, dated 2026), this text covers IC50 for 18 compounds.

The term IC50 denotes the midpoint of a concentration-inhibition curve.

What all share (format): cell-based
The target of assay [1] is T1, AHR (Homo sapiens, UniProt P35869).
T1 sequence (P35869 11-848): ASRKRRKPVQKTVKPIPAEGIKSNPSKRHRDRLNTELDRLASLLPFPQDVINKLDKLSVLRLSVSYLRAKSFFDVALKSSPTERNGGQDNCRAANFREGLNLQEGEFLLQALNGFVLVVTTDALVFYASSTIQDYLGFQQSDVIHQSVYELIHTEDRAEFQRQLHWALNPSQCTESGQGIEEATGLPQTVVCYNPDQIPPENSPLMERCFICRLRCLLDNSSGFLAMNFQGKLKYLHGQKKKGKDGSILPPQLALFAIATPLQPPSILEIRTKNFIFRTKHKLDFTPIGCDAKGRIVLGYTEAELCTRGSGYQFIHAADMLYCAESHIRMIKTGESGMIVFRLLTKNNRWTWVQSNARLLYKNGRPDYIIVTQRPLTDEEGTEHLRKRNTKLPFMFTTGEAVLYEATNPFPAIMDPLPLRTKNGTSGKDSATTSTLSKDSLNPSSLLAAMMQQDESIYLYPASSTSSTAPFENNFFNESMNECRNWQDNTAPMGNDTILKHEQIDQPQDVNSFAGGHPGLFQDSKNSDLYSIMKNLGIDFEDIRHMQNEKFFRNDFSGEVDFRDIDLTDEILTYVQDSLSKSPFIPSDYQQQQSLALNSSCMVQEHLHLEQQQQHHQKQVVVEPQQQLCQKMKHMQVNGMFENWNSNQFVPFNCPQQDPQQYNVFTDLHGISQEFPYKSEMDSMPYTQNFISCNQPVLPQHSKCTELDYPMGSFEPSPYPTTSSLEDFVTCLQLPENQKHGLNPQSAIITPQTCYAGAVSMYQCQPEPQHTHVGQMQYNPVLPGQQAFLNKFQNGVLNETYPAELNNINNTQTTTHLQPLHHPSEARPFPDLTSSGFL
Nature of the assay: In vitro assay 2: agonism in human cell line (transactivation assay, U87 cells, DRE firefly luciferase reporter). More on the design: host or cells: U87 glioblastoma cells, stably transfected with DRE firefly luciferase and renilla reporter constructs. The following applies: no kynurenic acid, 20 hours, read-out: Assay 2: AHR-luc Hum Agonism IC50. An outline of the steps: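 Agonist readout: DRE firefly luciferase, with constitutive renilla reporter, in stably transfected U87 cells expressing AHR endogenously. Normalization used positive control (300 uM kynurenic acid) and negative control.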
(In a reporter assay the amount or activity of a reporter protein is the signal.)

Assay [2] concerns the target T1, AHR. The assay is described as follows: In vitro assay 1: antagonism in human cell line (transactivation assay, U87 cells prestimulated with kynurenic acid, DRE firefly luciferase reporter). The conditions noted are these: 150 uM kynurenic acid, 20 hours, read-out: Assay 1: AHR-luc Hum Antagonism IC50. Also noted: host or cells: U87 glioblastoma cells, stably transfected with DRE firefly luciferase and renilla reporter constructs. The method, boiled down:
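Antagonism measured after kynurenic acid prestimulation in U87 cells that express AHR endogenously and stably harbor a firefly luciferase gene under DRE control plus a constitutive renilla construct. Positive and negative controls served for normalization.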

The target in assay [3] is T1, AHR. Nature of the assay: In vitro assay 3: AHR-regulated CYP1A1 expression in human cell line (U937, qPCR, KA stimulation). The conditions noted are these: U937 cells, 200 uM KA, 6 hours, CYP1A1 expression by qPCR; read-out: Assay 3: Hum CYP1A1 Antagonism IC50. The method, boiled down: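 U937 human monocytic cells were stimulated with 200 uM KA for 6 h, with or without compound at eight concentrations from 1 nM to 3 uM, in duplicate. CYP1A1 mRNA was quantified by Taqman qPCR as fold expression normalised to HPRT. Unstimulated cells served as negative control.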
(In qPCR the cycle at which signal appears reflects the starting amount.)

As to `Cn1cc(-n2nc(-c3ccc(Cl)cc3)cc(C(=O)NCC(O)C(F)(F)F)c2=O)cn1` (single isomer, unassigned; (-)) [Example 19, (−)-6-(4-Chlorophenyl)-2-(1-methyl-1H-pyrazol-4-yl)-3-oxo-N-(3,3,3-trifluoro-2-hydroxypropyl)-2,3-dihydropyridazine-4-carboxamide], the IC50 is more than 20000 nM on AHR [1], 3.92 nM on AHR [2] and 6.43 nM at AHR [3].
On to `C[C@H](NC(=O)c1cc(-c2ccc(Cl)cc2)nn(-c2cnn(C(F)F)c2)c1=O)C(C)(C)O` [Example 264, 6-(4-Chlorophenyl)-2-[1-(difluoromethyl)-1H-pyrazol-4-yl]-N-[(2S)-3-hydroxy-3-methylbutan-2-yl]-3-oxo-2,3-dihydropyridazine-4-carboxamide], for which the IC50 is more than 20000 nM on AHR [1], 44.4 nM at AHR [2] and 85.6 nM at AHR [3].
For `Cc1ccc(-c2cc(C(=O)NC(CO)C(C)C)c(=O)n(-c3cnn(C)c3)n2)cc1` (single isomer, unassigned) [Example 2, N-(1-Hydroxy-3-methylbutan-2-yl)-6-(4-methylphenyl)-2-(1-methyl-1H-pyrazol-4-yl)-3-oxo-2,3-dihydropyridazine-4-carboxamide], the IC50 was more than 20000 nM at AHR [1], 2.57 nM at AHR [2] and 3.03 nM on AHR [3].
As for `C[C@@H](CO)NC(=O)c1cc(-c2ccc(Cl)cc2)nn(-c2ccn(C)n2)c1=O` [Example 192, 6-(4-Chlorophenyl)-N-[(2S)-1-hydroxypropan-2-yl]-2-(1-methyl-1H-pyrazol-3-yl)-3-oxo-2,3-dihydropyridazine-4-carboxamide], the IC50 is more than 20000 nM on AHR [1], 341 nM at AHR [2] and 4.3 nM at AHR [3].
Regarding `C[C@@H](CO)NC(=O)c1cc(-c2ccc(Cl)cc2)nn(-c2cccnc2)c1=O` [Example 68, 6-(4-Chlorophenyl)-N-[(2S)-1-hydroxypropan-2-yl]-3-oxo-2-(pyridin-3-yl)-2,3-dihydropyridazine-4-carboxamide], the IC50 at AHR [1] was more than 20000 nM; on AHR [2] it was 24.2 nM; on AHR [3], 21.8 nM.
The matching figures for `Cn1cc(-n2nc(-c3ccc(Cl)cc3)cc(C(=O)NCC(O)C(F)(F)F)c2=O)cn1` (single isomer, unassigned; (+)) [Example 20, (+)-6-(4-Chlorophenyl)-2-(1-methyl-1H-pyrazol-4-yl)-3-oxo-N-(3,3,3-trifluoro-2-hydroxypropyl)-2,3-dihydropyridazine-4-carboxamide]: more than 20000 nM, 26.7 nM and 63.1 nM.
As to `O=C(N[C@H](CO)C(F)(F)F)c1cc(-c2ccc(OC(F)(F)F)cc2)nn(-c2cccnc2)c1=O` [Example 134, 3-Oxo-2-(pyridin-3-yl)-N-[(2R)-1,1,1-trifluoro-3-hydroxypropan-2-yl]-6-[4-(trifluoromethoxy)phenyl]-2,3-dihydropyridazine-4-carboxamide], the IC50 was more than 20000 nM at AHR [1], 7.68 nM at AHR [2] and 9.89 nM on AHR [3].
`Cc1ccc(-c2cc(C(=O)NC(CO)C(C)C)c(=O)n(-c3cnn(C)c3)n2)cc1` (stereo not drawn) [Example 1, N-(1-Hydroxy-3-methylbutan-2-yl)-6-(4-methylphenyl)-2-(1-methyl-1H-pyrazol-4-yl)-3-oxo-2,3-dihydropyridazine-4-carboxamide]: the figures for the IC50 on AHR [1], on AHR [2] and at AHR [3] were more than 20000 nM, 7.38 nM and 4.3 nM, respectively.
The corresponding values for `Cc1ccc(-c2cc(C(=O)NCC(O)C(F)(F)F)c(=O)n(-c3cnn(C)c3)n2)cc1` (stereo not drawn) [Example 10, 6-(4-Methylphenyl)-2-(1-methyl-1H-pyrazol-4-yl)-3-oxo-N-(3,3,3-trifluoro-2-hydroxypropyl)-2,3-dihydropyridazine-4-carboxamide] are more than 20000 nM, 4.25 nM and 10.2 nM.
For `C[C@@H](CO)NC(=O)c1cc(-c2ccc(OC(F)F)cc2)nn(-c2cnn(C)c2)c1=O` [Example 308, 6-[4-(Difluoromethoxy)phenyl]-N-[(2S)-1-hydroxypropan-2-yl]-2-(1-methyl-1H-pyrazol-4-yl)-3-oxo-2,3-dihydropyridazine-4-carboxamide], the IC50 was more than 20000 nM on AHR [1], 21.9 nM on AHR [2] and 33.7 nM at AHR [3].
The matching figures for `Cn1cc(-n2nc(-c3ccc(C(F)(F)F)cc3)cc(C(=O)N[C@@H]3COC[C@@H]3O)c2=O)cn1` (single isomer, unassigned) [Example 218, (+)-N-cis-4- Hydroxytetrahyd rofuran-3-yl-2-(1-methyl-1H-pyrazol-4-yl)-3-oxo-6-[4-(trifluoromethyl)phenyl]-2,3-dihydropyridazine-4-carboxamide]: more than 20000 nM, 2.78 nM and 4.01 nM.
Turning to `Cn1cc(-n2nc(-c3ccc(Cl)cc3)cc(C(=O)N[C@@H]3CCC[C@]3(C)O)c2=O)cn1` (relative stereo) [Example 317, 6-(4-Chlorophenyl)-N-[(cis)-2-hydroxy-2-methylcyclopentyl]-2-(1-methyl-1H-pyrazol-4-yl)-3-oxo-2,3-dihydropyridazine-4-carboxamide], the IC50 on AHR [1] is more than 20000 nM; on AHR [2], 30.3 nM; on AHR [3], 37.3 nM.
With `O=C(NC[C@H](O)C(F)(F)F)c1cc(-c2ccc(C(F)F)cc2)nn(-c2cccnc2)c1=O` [Example 313, 6-[4-(Difluoromethyl)phenyl]-3-oxo-2-(pyridin-3-yl)-N-[(2S)-3,3,3-trifluoro-2-hydroxypropyl]-2,3-dihydropyridazine-4-carboxamide], the IC50 at AHR [1] is more than 20000 nM; at AHR [2] it was 2.63 nM; at AHR [3], 3.81 nM.
As to `CC(C)(O)CNC(=O)c1cc(-c2ccc(Cl)cc2)nn(-c2cncc(F)c2)c1=O` [Example 82, 6-(4-Chlorophenyl)-2-(5-fluoropyridin-3-yl)-N-(2-hydroxy-2-methylpropyl)-3-oxo-2,3-dihydropyridazine-4-carboxamide], the IC50 at AHR [1] is more than 20000 nM; on AHR [2] it was 37.6 nM; at AHR [3], 34.5 nM.
Turning to `O=C(NC[C@H](O)C(F)(F)F)c1cc(-c2ccc(OC(F)F)cc2)nn(-c2cccnc2)c1=O` [Example 314, 6-[4-(Difluoromethoxy)phenyl]-3-oxo-2-(pyridin-3-yl)-N-[(2S)-3,3,3-trifluoro-2-hydroxypropyl]-2,3-dihydropyridazine-4-carboxamide], the values for the IC50 on AHR [1], on AHR [2] and on AHR [3] were more than 20000 nM, 5.8 nM and 10.9 nM, respectively.
Take `O=C(NC[C@H](O)C(F)(F)F)c1cc(-c2ccc(Cl)cc2)nn(-c2cncnc2)c1=O` [Example 237, 6-(4-Chlorophenyl)-3-oxo-2-(pyrimidin-5-yl)-N-[(2S)-3,3,3-trifluoro-2-hydroxypropyl]-2,3-dihydropyridazine-4-carboxamide]: the values for the IC50 at AHR [1], at AHR [2] and on AHR [3] were more than 20000 nM, 9.38 nM and 7.86 nM, respectively.
For `C[C@@H](CO)NC(=O)c1cc(-c2ccc(OC(F)(F)F)cc2)nn(-c2cnn(C)c2)c1=O` [Example 53, N-[(2S)-1-Hydroxypropan-2-yl]-2-(1-methyl-1H-pyrazol-4-yl)-3-oxo-6-[4-(trifluoromethoxy)phenyl]-2,3-dihydropyridazine-4-carboxamide], the IC50 at AHR [1] is more than 20000 nM; at AHR [2], 11.6 nM; at AHR [3] it was 11.1 nM.
For the compound `C[C@@H](CO)NC(=O)c1cc(-c2ccc(Cl)cc2)nn(-c2cnsc2)c1=O` [Example 194, (+)-6-(4-Chlorophenyl)-N-[(2S)-1-hydroxypropan-2-yl]-3-oxo-2-(1,2-thiazol-4-yl)-2,3-dihydropyridazine-4-carboxamide], the figures for the IC50 on AHR [1], on AHR [2] and at AHR [3] were more than 20000 nM, 3.09 nM and 7.6 nM, respectively.
